IC50, inhibition and Activity data for six compounds are collected here from ChEMBL document CHEMBL2016481, “Cytotoxic cytochalasins from the endozoic fungus Phoma sp. of the giant jellyfish Nemopilema nomurai” (Bioorg Med Chem Lett, 2012).

Calls of active or inactive are those of the source. The calls are words filed in the database; no cut-off is given here.

As usually defined, the IC50 is the midpoint of a concentration-inhibition curve.

Common to all, as to type: functional, cell-based
The subject of test [1] is A549. As to the kind of experiment: Cytotoxicity against human A549 cells after 48 hrs by SRB assay. To be noted: A549, 48 h. (In general: The SRB assay estimates cell density from bound dye.)
Test [2] relates to SK-OV-3. As to the kind of experiment: Cytotoxicity against human SKOV3 cells after 48 hrs by SRB assay. The conditions noted are these: SK-OV-3, 48 h.
Test [3] concerns SK-MEL-2. As to the kind of experiment: Cytotoxicity against human SK-MEL-2 cells after 48 hrs by SRB assay. To be noted: SK-MEL-2, 48 h.
The test system of test [4] is XF498. Kind of test: Cytotoxicity against human XF498 cells after 48 hrs by SRB assay. To be noted: XF498, 48 h.
The test system of test [5] is HCT-15. As to the kind of experiment: Cytotoxicity against human HCT15 cells after 48 hrs by SRB assay. The conditions noted are these: HCT-15, 48 h.
In test [6] the test system is HeLa. As to the kind of experiment: Cytotoxicity against human HeLa cells after 48 hrs by SRB assay.
The subject of test [7] is HeLa. Kind of test: Induction of mitochondrial apoptosis in human HeLa cells.

`CC1=C(C)[C@H]2[C@H](Cc3ccccc3)NC(=O)[C@]23OC(=O)/C=C/[C@H](O)CCC[C@@H](C)C/C=C/[C@H]3[C@@H]1O`: the IC50 in test [1] was determined as 5.99 µM; in test [2] it was 4.51 µM; in test [3], 5.28 µM; in test [4], 12.3 µM; in test [5], 5.76 µM.

In the case of `CC1=C(C)[C@H]2[C@H](Cc3ccccc3)NC(=O)[C@]23C(=O)/C=C/[C@H](O)CCC[C@@H](C)C/C=C/[C@H]3[C@@H]1O` [DEOXAPHOMIN B], the IC50 is 23.2 µM in test [1], 13.9 µM in test [2], 12.4 µM in test [3] and 29.3 µM in test [5].

In the case of `C=C1[C@@H](C)[C@H]2[C@H](Cc3ccccc3)NC(=O)[C@]23OC(=O)/C=C/[C@H](O)CCC[C@@H](C)C/C=C/[C@H]3[C@@H]1O` [CYTOCHALASIN B], the IC50 in test [1] amounted to 2.13 µM; in test [2], 0.46 µM; in test [3], 0.67 µM; in test [4], 2.36 µM; in test [5] it was 1.94 µM; in test [6] it was 7.9 µM. Also, the inhibition result in test [6] is “Dose-dependent effect”. The result in test [7] was Active.

For the compound `C[C@H]1C/C=C/[C@H]2[C@@H]3O[C@]3(C)[C@@H](C)[C@H]3[C@H](Cc4ccccc4)NC(=O)[C@]32OC(=O)/C=C/CCCC1`, the IC50 in test [1] is 12.4 µM; in test [2], 4.19 µM; in test [3] it was 8.35 µM; in test [5], 3.91 µM.

Take `CC1=C[C@@H]2/C=C/C[C@H](C)CCC[C@@H](O)/C=C/C(=O)[C@]23C(=O)N[C@@H](Cc2ccccc2)[C@@H]3[C@@H]1C` [DEOXAPHOMIN C]: the half-inhibitory concentration (IC50) was 8.58 µM in test [1], 5.48 µM in test [2], 6.66 µM in test [3] and 8.43 µM in test [5].

For the compound `COc1cccc2c1C(=O)c1c(O)c3c(c(O)c1C2=O)C[C@@](O)(C(=O)CO)C[C@@H]3O[C@H]1C[C@H](N)[C@H](O)[C@H](C)O1` [DOXORUBICIN], the IC50 was 0.002 µM in test [2], 0.002 µM in test [3], 0.015 µM in test [4] and 0.035 µM in test [5].
